According to patent publication US12410152B2, “Oxazole and thioazole-type cullin ring ubiquitin ligase compounds and uses thereof” (Proxygen GmbH, priority 2019, dated 2025):

Target: T1, CRL4B complex (CUL4B, DDB1) (Homo sapiens, UniProt Q13620+Q16531)
T1 construct: endogenous in cells; host or cells: KBM7 WT cells
Experiment: Chemoproteomics with IC021313.2 photoaffinity probe, competitive setup
Format: binding
Conditions: KBM7 WT; 100 μM competitor, 10 μM photoprobe
Source text: Another explanation would be (2) functional redundancy, where our identified small-molecules modulate more than one SR in an interchangeable manner (either directly or indirectly). Lastly (3), it could be that the tested molecules endow a neomorphic function of the CRL4B complex by binding to a non-SR component. In order to disentangle these hypotheses, and to test if the assayed molecules would directly bind to/physically engage the CRL4B complex, IC021313.2 was derivatized with a moiety consisting of a photoactive diazirine group and an alkyl handle (FIG. 7). The ensuing functionalized molecule was used to purify proteins physically binding to the compound (“interactors”). In order to gain increased confidence, a competitive setup was chosen where cells were initially treated with the parental, non-modified compound or vehicle control. Compound treatment (1h) at excess concentrations of 100 μM was expected to saturate binding sites. Subsequently, cells (both vehicle- and compound-treated) were treated with the functionalized probe for 1 h at 10 μM, followed by UV-crosslinking. Next, cells were lysed and a biotin-azide linker was attached via click chemistry, and interacting proteins (“interactors”) were purified via biotin enrichment over a Streptavidin column and subjected to unbiased detection via label-free proteomics analysis. […]

T1 sequence (Q13620 whole entry): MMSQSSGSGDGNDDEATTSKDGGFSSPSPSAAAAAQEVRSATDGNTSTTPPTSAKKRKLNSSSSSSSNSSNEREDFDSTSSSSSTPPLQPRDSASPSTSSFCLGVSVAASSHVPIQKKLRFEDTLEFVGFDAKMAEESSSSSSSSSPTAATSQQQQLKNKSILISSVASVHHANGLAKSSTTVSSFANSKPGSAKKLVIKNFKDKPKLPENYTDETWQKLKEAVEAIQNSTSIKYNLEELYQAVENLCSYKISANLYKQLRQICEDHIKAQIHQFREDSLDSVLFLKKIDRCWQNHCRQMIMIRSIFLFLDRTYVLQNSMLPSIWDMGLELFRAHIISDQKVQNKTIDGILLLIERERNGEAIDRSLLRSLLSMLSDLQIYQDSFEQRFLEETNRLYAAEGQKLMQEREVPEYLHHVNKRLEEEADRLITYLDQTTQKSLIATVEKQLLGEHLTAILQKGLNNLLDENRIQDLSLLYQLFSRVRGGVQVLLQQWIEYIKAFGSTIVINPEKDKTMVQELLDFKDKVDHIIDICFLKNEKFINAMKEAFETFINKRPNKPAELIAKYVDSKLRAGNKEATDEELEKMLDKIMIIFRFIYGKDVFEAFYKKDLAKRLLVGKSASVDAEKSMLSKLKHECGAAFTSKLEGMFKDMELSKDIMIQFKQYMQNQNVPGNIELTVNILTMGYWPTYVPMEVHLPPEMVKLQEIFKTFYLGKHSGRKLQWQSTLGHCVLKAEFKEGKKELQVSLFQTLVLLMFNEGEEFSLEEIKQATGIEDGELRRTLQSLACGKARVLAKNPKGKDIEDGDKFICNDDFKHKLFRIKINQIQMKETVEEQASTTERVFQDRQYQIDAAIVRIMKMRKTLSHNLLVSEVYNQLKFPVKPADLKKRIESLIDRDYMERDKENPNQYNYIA
T1 sequence (Q16531 2-1140 limits assumed): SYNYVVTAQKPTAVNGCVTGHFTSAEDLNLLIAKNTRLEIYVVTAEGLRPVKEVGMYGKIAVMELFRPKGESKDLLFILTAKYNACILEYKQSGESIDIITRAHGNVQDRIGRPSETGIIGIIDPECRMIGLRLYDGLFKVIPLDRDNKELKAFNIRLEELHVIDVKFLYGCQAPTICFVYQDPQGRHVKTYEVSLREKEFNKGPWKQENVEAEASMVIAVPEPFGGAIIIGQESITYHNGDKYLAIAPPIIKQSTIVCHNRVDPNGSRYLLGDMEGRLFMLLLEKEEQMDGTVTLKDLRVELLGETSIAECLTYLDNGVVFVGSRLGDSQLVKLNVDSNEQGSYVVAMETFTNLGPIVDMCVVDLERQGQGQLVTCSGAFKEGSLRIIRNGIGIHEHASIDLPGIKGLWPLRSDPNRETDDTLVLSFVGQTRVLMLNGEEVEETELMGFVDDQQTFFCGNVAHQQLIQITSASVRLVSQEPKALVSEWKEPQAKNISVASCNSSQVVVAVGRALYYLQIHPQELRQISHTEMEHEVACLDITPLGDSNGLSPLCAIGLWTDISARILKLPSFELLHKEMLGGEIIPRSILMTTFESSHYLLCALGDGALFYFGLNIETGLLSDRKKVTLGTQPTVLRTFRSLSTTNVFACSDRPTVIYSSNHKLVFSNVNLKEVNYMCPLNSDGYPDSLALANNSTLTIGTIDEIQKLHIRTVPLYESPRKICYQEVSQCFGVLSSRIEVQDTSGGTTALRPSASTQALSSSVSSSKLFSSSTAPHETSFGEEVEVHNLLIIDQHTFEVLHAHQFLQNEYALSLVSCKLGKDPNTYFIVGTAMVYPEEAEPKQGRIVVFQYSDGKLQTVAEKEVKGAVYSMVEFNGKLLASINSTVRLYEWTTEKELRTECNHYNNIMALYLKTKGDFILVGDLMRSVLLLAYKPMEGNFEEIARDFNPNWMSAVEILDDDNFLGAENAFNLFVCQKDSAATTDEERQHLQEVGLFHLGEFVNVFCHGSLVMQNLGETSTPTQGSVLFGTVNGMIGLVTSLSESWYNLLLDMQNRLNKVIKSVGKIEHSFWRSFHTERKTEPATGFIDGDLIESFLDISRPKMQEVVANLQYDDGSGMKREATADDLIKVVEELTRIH
T1 sequence (Q9NYV4 whole entry partner): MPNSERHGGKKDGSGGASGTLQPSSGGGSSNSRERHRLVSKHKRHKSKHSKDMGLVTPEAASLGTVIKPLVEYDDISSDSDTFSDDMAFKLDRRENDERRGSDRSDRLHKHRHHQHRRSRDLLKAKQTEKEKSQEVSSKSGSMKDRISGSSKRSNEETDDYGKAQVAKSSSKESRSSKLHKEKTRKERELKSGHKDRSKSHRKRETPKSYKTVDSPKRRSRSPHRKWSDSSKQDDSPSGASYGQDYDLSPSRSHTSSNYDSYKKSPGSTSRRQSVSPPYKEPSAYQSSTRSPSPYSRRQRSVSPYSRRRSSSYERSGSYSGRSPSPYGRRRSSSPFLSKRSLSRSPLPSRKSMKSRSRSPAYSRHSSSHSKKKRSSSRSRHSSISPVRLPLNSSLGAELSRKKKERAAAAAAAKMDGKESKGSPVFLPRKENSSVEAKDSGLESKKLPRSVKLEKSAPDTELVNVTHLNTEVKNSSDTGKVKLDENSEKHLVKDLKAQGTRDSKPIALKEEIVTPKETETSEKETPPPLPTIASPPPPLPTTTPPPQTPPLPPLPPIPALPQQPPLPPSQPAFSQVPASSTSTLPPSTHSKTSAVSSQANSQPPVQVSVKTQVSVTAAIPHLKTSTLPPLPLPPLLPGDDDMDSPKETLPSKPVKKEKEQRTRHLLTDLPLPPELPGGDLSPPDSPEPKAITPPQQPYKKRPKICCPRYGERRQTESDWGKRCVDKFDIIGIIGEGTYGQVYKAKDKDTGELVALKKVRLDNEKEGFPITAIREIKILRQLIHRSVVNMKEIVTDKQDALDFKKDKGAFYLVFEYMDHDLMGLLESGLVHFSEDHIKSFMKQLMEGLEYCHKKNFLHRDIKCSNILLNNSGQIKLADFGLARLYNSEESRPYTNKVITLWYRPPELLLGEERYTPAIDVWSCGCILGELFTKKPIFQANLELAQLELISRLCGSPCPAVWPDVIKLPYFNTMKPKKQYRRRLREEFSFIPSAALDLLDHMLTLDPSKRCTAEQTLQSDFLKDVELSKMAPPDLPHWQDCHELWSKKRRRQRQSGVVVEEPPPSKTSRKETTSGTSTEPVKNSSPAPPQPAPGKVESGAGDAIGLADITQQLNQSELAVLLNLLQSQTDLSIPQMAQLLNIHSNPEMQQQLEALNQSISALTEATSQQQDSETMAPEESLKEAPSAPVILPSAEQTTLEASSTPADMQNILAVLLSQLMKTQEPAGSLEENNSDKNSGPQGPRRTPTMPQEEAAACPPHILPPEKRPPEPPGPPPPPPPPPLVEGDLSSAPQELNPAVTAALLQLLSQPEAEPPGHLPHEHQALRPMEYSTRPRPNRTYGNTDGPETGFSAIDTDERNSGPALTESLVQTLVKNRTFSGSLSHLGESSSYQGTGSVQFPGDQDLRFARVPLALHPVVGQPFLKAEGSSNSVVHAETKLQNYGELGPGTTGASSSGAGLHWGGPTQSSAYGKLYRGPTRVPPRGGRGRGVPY
T1 sequence (O75909 whole entry partner): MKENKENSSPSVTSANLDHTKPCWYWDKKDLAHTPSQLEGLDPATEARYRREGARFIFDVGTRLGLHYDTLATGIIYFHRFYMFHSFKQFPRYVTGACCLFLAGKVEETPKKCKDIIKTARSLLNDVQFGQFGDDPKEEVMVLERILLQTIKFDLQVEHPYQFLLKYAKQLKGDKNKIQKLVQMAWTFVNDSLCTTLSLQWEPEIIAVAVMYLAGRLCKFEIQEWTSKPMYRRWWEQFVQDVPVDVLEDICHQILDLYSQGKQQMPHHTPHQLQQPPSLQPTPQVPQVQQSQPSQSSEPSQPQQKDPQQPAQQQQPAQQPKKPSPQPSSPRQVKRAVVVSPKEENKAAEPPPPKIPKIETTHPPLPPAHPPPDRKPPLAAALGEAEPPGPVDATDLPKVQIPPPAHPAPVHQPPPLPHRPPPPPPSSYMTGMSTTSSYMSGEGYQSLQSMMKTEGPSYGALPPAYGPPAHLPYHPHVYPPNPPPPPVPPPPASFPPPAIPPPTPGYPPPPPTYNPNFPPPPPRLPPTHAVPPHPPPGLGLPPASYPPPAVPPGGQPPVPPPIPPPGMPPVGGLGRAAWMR

Q: For `O=C(CSc1nc2ccccc2[nH]1)Nc1ccc(Cl)cn1` [IC021313.2], which “physical engagement of CRL4B complex (competitive photoprobe pulldown, MS)” value is on record?
A: physically engages with a CRL4B complex
